Drawing on PubChem BioAssay (NCI), this text covers TGI and GI50 for 25 compounds.

What all share (experiment): DTP human tumour cell line panel, 48 h
For assay [1], the system named is OVCAR-4 ovarian.
Assay [2] has as its system SF-539 CNS.
Assay [3] relates to NCI/ADR-RES ovarian.
Assay [4] deals with SNB-75 CNS.
Assay [5] deals with HL-60(TB) leukemia.
Assay [6] concerns SF-295 CNS.
Assay [7] concerns K-562 leukemia.
Assay [8] relates to MDA-MB-435.
Assay [9] concerns OVCAR-3 ovarian.
The subject of assay [10] is HCC-2998 colon.
Assay [11] deals with U251 CNS.
For assay [12], the system named is SK-MEL-5 melanoma.
The test system of assay [13] is RXF 393 renal.

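Five concentrations, 48 hours, 96-well plates. The concentration for 50% growth inhibition is given as GI50. TGI denotes the concentration required for complete inhibition of growth.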

As a reminder, the TGI is the concentration at which net growth stops. Low readings indicate more potent growth arrest, high ones less potent growth arrest. In general, GI50 refers to the concentration that inhibits growth by half. With `O=C1CNc2cc(N3CCN(c4cccc(C(F)(F)F)c4)CC3)ccc2N1`, the TGI in [1] was above 100 µM; in assay [2], above 100 µM; in [3], above 91.1 µM; in assay [4], above 100 µM; in assay [5], above 83.5 µM; in assay [6], above 92.3 µM. In addition, the TGI in assay [7] was above 100 µM; in assay [8] it was above 100 µM; in [9] it was above 100 µM; in [10] it was above 100 µM; in assay [11], above 100 µM; in assay [12], 40.3 µM. Also, in [7], the GI50 is 9 µM.
For `Cn1c2c(c3ccccc31)CC(=O)N1CCCCC1C21OCCO1` (centres undefined), the TGI in assay [1], in assay [3], in [4], in [6], in assay [8] and in [9] was above 100 µM in each case. Further, the TGI in assay [10], in assay [11], in assay [13] and in [12] was above 100 µM throughout.
Regarding `CCOC(=O)c1c(NC(=O)c2ccccc2)sc2c1CCC2`, the total growth inhibition concentration (TGI) in assay [2], in assay [3], in assay [4], in assay [5], in [6] and in assay [7] was above 100 µM throughout. The TGI in assay [9], in assay [13] and in assay [12] was above 100 µM in each case.
Turning to `CC(=S)NNC(=O)c1ccncc1`, the TGI in [1], in assay [2], in assay [4], in assay [5], in [6] and in assay [7] was above 100 µM in each case. The concentration for total growth inhibition (TGI) in assay [9], in [10], in assay [11], in [13] and in assay [12] was above 100 µM throughout.
Take `CCOC(=O)c1cc2cc(CSc3ccccc3)ccc2oc1=O`: the concentration for total growth inhibition (TGI) in assay [1], in assay [2], in assay [3], in assay [4], in assay [6] and in assay [7] was above 100 µM throughout. Besides, the TGI in [8], in [9], in assay [10], in assay [11], in assay [13] and in [12] was above 100 µM each time.
`CNS(=O)(=O)NN(C)S(=O)(=O)c1ccc(Br)cc1`: the TGI in [1], in [2], in [4], in assay [5], in assay [6] and in assay [7] was above 100 µM each time. For the same compound, the total growth inhibition concentration (TGI) in assay [9], in [10], in assay [11], in assay [13] and in assay [12] was above 100 µM throughout.
For the compound `Cc1ccc(S(=O)(=O)OCC23CCC(C4CC42)C2CC23)cc1` (centres undefined), the TGI is above 100 µM in assay [1]; 37.8 µM in assay [5]; above 100 µM in assay [6]; above 100 µM in assay [7]; above 100 µM in [9]; above 100 µM in assay [10]. Besides, the TGI in assay [11] and in assay [12] was above 100 µM throughout.
Regarding `CC(=O)O/C(=C(/C#N)C(=O)O)C1C(C(=O)O)C(c2ccccc2[N+](=O)[O-])C=C(c2ccco2)N1c1ccncc1` (centres undefined), the total growth inhibition concentration (TGI) in assay [1] is 37.4 µM; in [2] it was 3.89 µM; in [3], 36.6 µM; in assay [4], 20.1 µM; in [5], above 100 µM; in assay [6], 19.2 µM. Moreover, the TGI in assay [7] was above 100 µM; in assay [8] it was 15.7 µM; in assay [9], 8.07 µM; in assay [10], 9.45 µM; in assay [11] it was 4.89 µM; in assay [12], 7.24 µM.
Take `N#Cc1nc(Cc2ccccc2)oc1N`: the TGI in assay [1], in assay [2], in [6], in assay [7], in assay [8] and in assay [9] was above 100 µM each time. In addition, the total growth inhibition concentration (TGI) in [11], in [13] and in [12] was above 100 µM in each case.
As for `O=C(c1ccc(Cl)cc1)N(C(=S)N1CCN(c2ccccc2)CC1)c1ccccc1`, the TGI in assay [1], in assay [2], in assay [4], in assay [5], in assay [6] and in assay [7] was above 100 µM each time. For the same compound, the TGI in [9], in assay [11], in assay [13] and in assay [12] was above 100 µM throughout.
On to `Cc1[nH]n(-c2nc(O)c(C)c(=O)[nH]2)c(=O)c1CCO`, for which the total growth inhibition concentration (TGI) in [1], in assay [2], in assay [4], in assay [5], in [6] and in assay [7] was above 100 µM throughout. The TGI is above 100 µM in assay [8], above 100 µM in [11], 93.3 µM in assay [13] and above 100 µM in [12].
Regarding `CSc1cc(Cl)c(C)cc1S(=O)(=O)NC(=O)NNc1ccccn1`, the TGI in [1], in [2], in assay [3], in [4], in assay [6] and in assay [7] was above 100 µM each time. Also, the TGI in assay [8], in assay [9], in assay [10], in [11], in assay [13] and in assay [12] was above 100 µM in each case.
Turning to `COc1ccc(/C=N/n2c(Cc3ccc(Cl)cc3)n[nH]c2=O)cc1`, the total growth inhibition concentration (TGI) was above 100 µM in assay [1]; above 100 µM in [2]; above 100 µM in assay [3]; 38.5 µM in assay [4]; 49.9 µM in assay [6]; above 100 µM in [7]. Besides, the TGI was above 100 µM in assay [8]; above 100 µM in assay [9]; above 100 µM in assay [10]; 33.6 µM in [11]; 35.1 µM in assay [13].
For the compound `O=C(CN=C(CN(c1ccccc1)c1ccccc1)Oc1c([N+](=O)[O-])cc([N+](=O)[O-])cc1[N+](=O)[O-])N1CCNCC1`, the TGI in assay [1], in assay [2], in assay [4], in assay [5], in assay [6] and in [7] was above 100 µM each time. For the same compound, the TGI in [8], in assay [9], in assay [10], in assay [11], in assay [13] and in assay [12] was above 100 µM throughout.
With `O=C(/C(Cl)=C/c1ccccc1)c1ccccc1`, the concentration for total growth inhibition (TGI) in assay [1] is 16.9 µM; in [2] it was 13.1 µM; in assay [3], 19.4 µM; in assay [4], 26.9 µM; in assay [6], 37.6 µM; in assay [7], above 26 µM. The TGI in [8] is 9.52 µM; in [9], 8.36 µM; in assay [10], 12.9 µM; in assay [11], above 40.1 µM; in assay [13], 8.16 µM; in assay [12], 12.1 µM.
On to `COc1ccc(S(=O)Cc2cc(OC)ccc2OC)cc1` (centres undefined), for which the TGI in [1], in [2], in assay [3], in assay [4], in assay [6] and in assay [7] was above 100 µM each time. Moreover, the TGI in assay [8], in assay [9], in assay [10], in [11] and in assay [13] was above 100 µM throughout.
In the case of `Cc1ccc(NC(=S)NNC(=O)c2cc(-c3ccccc3)nc3ccccc23)cc1C`, the TGI was found to be 58.2 µM in assay [1]; 40.3 µM in [2]; 49.1 µM in assay [3]; 56.5 µM in assay [4]; 29.6 µM in assay [6]; 79.5 µM in assay [7]. The TGI in [8] stood at 59.5 µM; in [10] it was 35.2 µM; in [11] it was 49.4 µM; in assay [13], 55.5 µM; in assay [12], 34.4 µM.
`CCOP(=O)(OCC)C(Cc1ccccc1)N=C(c1ccccc1)c1ccccc1` (centres undefined): the total growth inhibition concentration (TGI) in assay [1] was 38.3 µM; in assay [3], 28.7 µM; in [4], 24.2 µM; in assay [5] it was above 100 µM; in assay [6], 25.8 µM; in assay [7] it was 41.9 µM. The total growth inhibition concentration (TGI) in [8] was 27.8 µM; in assay [9], 30.3 µM; in assay [11], 28.4 µM; in assay [12] it was 25.5 µM.
Take `c1ccc(-c2cc(-c3cc(-c4ccccc4)n[nH]3)[nH]n2)cc1`: the TGI in assay [1], in [2], in [3], in assay [4], in assay [6] and in [7] was above 100 µM throughout. The TGI in assay [8], in assay [9], in assay [10], in [11], in [13] and in [12] was above 100 µM each time.
Take `COc1ccc(/C=N/n2c(C)n[nH]c2=O)cc1`: the total growth inhibition concentration (TGI) in [1], in assay [2], in assay [3], in [4], in assay [6] and in [7] was above 100 µM in each case. The TGI in assay [8], in [9], in [10] and in [11] was above 100 µM throughout.
Regarding `O=C1NC2(O)c3ccccc3C(=O)C2(O)N1c1ccccc1` (centres undefined), the concentration for total growth inhibition (TGI) in assay [1], in assay [2], in [4], in assay [5], in assay [6] and in assay [7] was above 100 µM each time. Further, the TGI in [9], in assay [10] and in assay [11] was above 100 µM each time.
Regarding `C=CCOc1ccc(C2c3c([nH][nH]c3=O)CC(C)(O)C2C(=O)OC)cc1OC` (centres undefined), the TGI in assay [1], in assay [2], in assay [3], in assay [4], in assay [5] and in assay [6] was above 100 µM throughout. For the same compound, the TGI in [8], in assay [9], in assay [10], in assay [11] and in [12] was above 100 µM throughout.
On to `C/C(=N/NC(=S)N(Cc1ccccn1)Cc1ccccn1)c1cnccn1`, for which the TGI was 8.14 µM in assay [1]; 17.2 µM in [4]; above 68.2 µM in assay [5]; 9.37 µM in assay [6]; above 100 µM in assay [7]; 35.6 µM in [8]. For the same compound, the concentration for total growth inhibition (TGI) in assay [9] was 12.6 µM; in assay [10], above 43.4 µM; in assay [11], above 47.9 µM; in assay [13] it was 17.4 µM; in assay [12], above 37.9 µM.
As for `CC(C)(C)OC(=O)/C=C/C(=O)O/C=C/[N+](=O)[O-]`, the TGI in assay [2], in assay [4], in assay [6], in [7], in assay [8] and in assay [9] was above 100 µM each time. The TGI in [10], in [11], in assay [13] and in [12] was above 100 µM each time.
As for `Cc1ccc(NNc2cc(=O)[nH]c(=O)[nH]2)cc1Cl`, the concentration for total growth inhibition (TGI) was 28.5 µM in assay [1]; 69.4 µM in assay [2]; above 100 µM in [3]; above 100 µM in assay [4]; 18.3 µM in assay [5]; above 100 µM in assay [6]. Moreover, the TGI was above 100 µM in [7]; 28 µM in [9]; 29.8 µM in assay [10]; 30 µM in [11]; 30.4 µM in assay [13]; above 100 µM in assay [12].
